According to patent US11174216B2, “Lipids that increase insulin sensitivity and methods of using the same” (Beth Israel Deaconess Medical Center, Inc., priority 2012, dated 2021):

How the values were obtained:
[1] = test system: FA-CoA:HFA acyltransferase activity; test: FAHFA biosynthesis (FA-CoA:HFA acyltransferase) assay in tissue lysates; format: biochemical; conditions: 10 uM 9-HSA and oleoyl-CoA, increasing doses
Procedure: In order to understand the biology of the new FAHFA lipid class more completely, experiments were performed to identify an enzyme capable of synthesizing FAHFAs as well. By structural analogy to other lipid metabolites such as diacylglycerols or wax esters, it was hypothesized that hydroxy fatty acids were the immediate precursors to FAHFAs. Candidate acyltransferases were identified by reacting the common biochemical acyl carrier, oleoyl-CoA, with 9-hydroxystearic acid (9-HSA) in the presence of cell lysates or tissue membrane lysates to form 9-OAHSA (Scheme 2; FIG. 61 ).
After first establishing that FA-CoA:HFA acyltransferase activity was membrane-localized in liver (not shown), we isolated membrane fractions from liver or WAT tissue lysate by ultracentrifugation, then resuspended the pellets in PBS buffer and diluted to 1 mg/ml protein concentration. […] The reaction mixtures were extracted with ethyl acetate, concentrated, and reconstituted in 1:1 chloroform:methanol for MS analysis. Formation of 9-OAHSA was measured by MS/MS, with which the appearance of the parent ion m/z 563 was monitored.
In light of the above results acyltransferase families that have been reported to have a membrane-bound localization and to have the ability to conjugate FA-CoA to a hydrophobic alcohol were targeted. […]

STC-1 cells [2] = test: ERK phosphorylation in STC-1 cells (immunoblot); format: cell-based; conditions: 15 minutes
Procedure: For the experiments summarized in FIG. 50, STC-1 cells were incubated with 9-PAHSA, 5-PAHSA or 9-OAHSA at the indicated concentrations. Cells were harvested and lysed and proteins were separated by SDS PAGE and transferred onto nitrocellulose filters. The phosphorylation of ERK and the amount of total ERK was determined by immunoblotting with antibodies specific for total or phosphor-ERK. DMSO was the control. For ERK phosphorylation, cells were serum deprived overnight and stimulated with FAHFAs or vehicle as indicated for 15 minutes followed by lysis in RIPA buffer and analysis by SDS-PAGE

GPR120 = target: T1, GPR120 (Homo sapiens, UniProt Q5NUL3); test: PATHHUNTER beta-Arrestin GPCR assay; format: cell-based
T1 sequence (Q5NUL3 1-361): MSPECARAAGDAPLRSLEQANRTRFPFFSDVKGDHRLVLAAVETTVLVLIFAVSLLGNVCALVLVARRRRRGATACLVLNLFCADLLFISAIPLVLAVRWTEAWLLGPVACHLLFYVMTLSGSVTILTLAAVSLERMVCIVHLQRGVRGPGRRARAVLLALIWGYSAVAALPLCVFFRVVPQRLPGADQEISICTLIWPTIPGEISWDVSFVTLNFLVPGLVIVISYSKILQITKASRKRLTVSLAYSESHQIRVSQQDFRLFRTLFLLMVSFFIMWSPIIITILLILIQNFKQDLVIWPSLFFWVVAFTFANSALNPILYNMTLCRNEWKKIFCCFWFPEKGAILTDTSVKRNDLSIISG
Text: For the experiments summarized in FIGS. 53-55, the fragment based GPCR assay from DiscoveRx (PATHHUNTER® β-Arrestin assay) was used to as per manufacturer's instructions to determine activation of specific GPCRs as indicated in FIGS. 53-55.

STC-1 cells [3] = test: GLP-1 secretion in STC-1 enteroendocrine cells (ELISA); format: cell-based
Procedure: For the experiments summarized in FIG. 51 STC-1 cells were incubated with vehicle (DMSO), 9-PAHSA, 5-PAHSA or 9-OAHSA at the indicated concentrations or lineolic acid (100 uM) as a positive control. Media was harvested and GLP-1 was measured by ELISA.
For the experiments summarized in FIG. 52, the same protocol as described for FIG. 51 was used, except in this experiment a time course was performed. For both FIG. 51 and FIG. 52, for GLP-1 secretion STC1 cells were washed 3× with serum free culture media followed by stimulation with FAHFAs or vehicle at the indicated concentrations and timepoints. Levels of active GLP-1 were measured by ELISA.

HepG2 cells = test: PPAR agonist studies, FAHFA levels in HepG2 cells; format: cell-based; conditions: 0.5 uM and 1.0 uM, 48 hr, cells and media
Procedure: In this example, HepG2 cells were seeded in 6-well plates. At 80% confluence, cells were treated with two different concentrations [0.5 uM and 1.0 uM] of an agonist of PPAR α (WY14643), δ (CAY10592), or γ (Pioglitazone) for 48 hr in HepG2 media with 2.5% FBS. At the end of incubation, 500 uL of media was collected and the cells were collected in PBS for lipid extraction. Lipids were extracted from both media and cells to quantitate the FAHFA levels by Mass Spec. The results are summarized in FIGS. 33 and 34 for the cells and media, respectively.
HepG2 cells were seeded in 6-well plate. At 80% confluence, cells were treated with two different concentrations [0.5 μM and 1.0 μM] of PPAR α/δ/γ agonists for 48 h in HepG2 media containing 2.5% fetal bovine serum (PPAR α agonist—WY14643; PPAR δ agonist—CAY10592; PPAR γ agonist—Pioglitazone). At the end of incubation, 500 μL of media and the cells were collected in PBS. Lipids were extracted as per Folch Method from both media and cells to quantitate the FAHFA levels by Mass Spec. Briefly, chloroform and methanol were added to the media or cells in 2:1 ratio and sonicated for 2-3 min and centrifuged at 3000 rpm for 10 min at 4° C. […] Calculated volume of chloroform is added to the dissolve the lipids and 2 μL of injection volume was used to analyze FAHFAs through Mass spec. […]

[4] = test system: carboxyl ester lipase (CEL)
[5] = test system: FAHFA hydrolysis activity in pancreas membrane lysate; test: FAHFA hydrolysis activity assay, pancreas membrane lysate; conditions: pancreas lysate
[6] = test system: FAHFA hydrolysis activity in liver lysate

CCCCCCCCCCC(C)(C)C(=O)Nc1c(OC)cc(OC)cc1OC [CI976]
9-OAHSA levels (FAHFA production) [1]: no change

CCCCCCCC/C=C\CCCCCCCC(=O)OC(CCCCCCCCC)CCCCCCCC(=O)O (stereo not shown) [9-OAHSA]
ERK phosphorylation (STC-1 cells [2]): induce ERK phosphorylation | activation of GPR120 (GPR120): but not 9OAHSA, activate GPR120 | GLP-1 secretion (STC-1 cells [3]): induce GLP-1 secretion

O=C(O)COc1ccc(SCC=C(c2ccc(Br)cc2)c2ccc(Br)cc2)cc1Cl [CAY10592]
FAHFA production in liver cells (HepG2 cells): stimulate FAHFA production

O=C(Nc1ccccc1)Nc1ccc(-c2ccc(C(=O)[C@@H]3CCC[C@H]3C(=O)O)cc2)cc1 [A922500]
9-OAHSA levels (FAHFA production) [1]: no change

C[C@H](CCC(=O)NCCS(=O)(=O)O)[C@H]1CC[C@H]2[C@@H]3[C@H](O)C[C@@H]4C[C@H](O)CC[C@]4(C)[C@H]3C[C@H](O)[C@]12C [NaTC, sodium taurocholate, reference compound]
effect on FAHFA hydrolysis [4]: enhanced | effect on FAHFA hydrolysis [5]: markedly increased | effect on FAHFA hydrolysis [6]: not enhanced

Cc1cccc(Nc2cc(Cl)nc(SCC(=O)O)n2)c1C [WY14643]
FAHFA production in liver cells (HepG2 cells): stimulate FAHFA production
